In publication PMC7442216 (Journal of medicinal chemistry, 2019):

Tested on: HIV-1 NL4-3 NanoLuc-sec infection of MT4 cells
Assay: MOA comparison: antiviral activity in the presence or absence of enzastaurin
Type: cell-based
Conditions: for HIV-1 inhibitory activity in the presence of enzastaurin: enzastaurin 1 μM, 1 at 0.6 nM, 13e at 2 nM

| Compound | antagonism of GM's HIV-1 inhibitory activity (enzastaurin at 1 μM, GM at 0.6 nM) | HIV-1 inhibitory activity in the presence of enzastaurin | antiviral potency relative to 1 (in this assay) |
| --- | --- | --- | --- |
| Cn1cc(C2=C(c3cn(C4CCN(Cc5ccccn5)CC4)c4ccccc34)C(=O)NC2=O)c2ccccc21 [enzastaurin, reference compound] | effectively antagonized |  |  |
| C=C(C)[C@]12C[C@@H](COC(=O)c3ccccc3)[C@@]34OC5(O[C@@H]1[C@@H]3[C@@H]1O[C@]1(CO)[C@@H](O)[C@@]1(O)[C@H]4[C@H]([C@H](C)[C@@H]1OC(=O)c1ccncc1)[C@H](C)CCCCCC[C@H]5O)O2 [Compound 13e, 3-O-(4-Pyridinylcarbonyl) Stelleramacrin] |  | able to abrogate | approximately threefold weaker |
| C=C(C)[C@]12C[C@@H](COC(=O)c3ccccc3)[C@@]34OC5(O[C@@H]1[C@@H]3[C@@H]1O[C@]1(CO)[C@@H](O)[C@@]1(O)[C@H]4[C@H]([C@H](C)[C@@H]1OC(=O)c1ccccc1)[C@H](C)CCCCCC[C@H]5O)O2 [Compound 1, gnidimacrin] |  | largely abrogated |  |
